The target of assay [1] is T1, Ctf4 471-927 (Ctf4CTD) (Saccharomyces cerevisiae, UniProt Q01454).
T1 sequence (Q01454 471-927): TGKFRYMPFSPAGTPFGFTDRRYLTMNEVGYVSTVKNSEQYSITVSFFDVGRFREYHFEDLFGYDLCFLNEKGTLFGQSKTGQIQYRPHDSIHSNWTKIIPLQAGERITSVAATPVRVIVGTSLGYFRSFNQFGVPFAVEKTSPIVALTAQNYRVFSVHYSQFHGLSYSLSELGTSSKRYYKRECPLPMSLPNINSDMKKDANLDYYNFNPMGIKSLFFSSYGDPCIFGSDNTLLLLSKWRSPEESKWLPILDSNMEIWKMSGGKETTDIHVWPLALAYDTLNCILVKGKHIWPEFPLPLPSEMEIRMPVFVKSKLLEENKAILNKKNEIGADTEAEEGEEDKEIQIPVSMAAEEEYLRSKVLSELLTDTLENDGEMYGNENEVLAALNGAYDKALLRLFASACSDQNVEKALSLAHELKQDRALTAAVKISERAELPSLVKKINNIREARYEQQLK
The assay can be described thus: Fluorescence anisotropy, peptide binding to Ctf4 471-927. Further details: species or system budding yeast. As to conditions: 40 nM fluorescein-labeled Tof2 peptide, pH 7.2, 25°C, single measurement. Here is the method:
(§1) The lowest concentration of peptide at which the binding studies could be performed was determined via peptide calibration curves. Fluorescence anisotropy measurements were recorded in a PHERAstar Plus multi-detection plate reader (BMG Labtech) equipped with fluorescence polarization optic module (λex = 485 nm; λem = 520 nm) at 25°C. Each data point is the mean of 200 flashes/well. The voltage gain was set by adjusting the target mP values of fluorescein-labeled peptides relative to that of fluorescein (35 mP). Serial dilutions of Ctf4CTD were made in 20 mM HEPES (pH 7.2), 140 mM KCl, and 5% (w/v) glycerol in the presence of 40 nM (Sld5 and Tof2) or 50 nM (Dna2) fluorescein-labeled peptide. For Dna2 peptide, each data point is the mean of three independent experiments and curve fitting to the experimental data was performed in pro Fit 6.2 (QuantumSoft) using a Levenberg-Marquardt fitting algorithm in combination with a Gaussian error distribution analysis.

A further assay relates to Ctf4 471–927. As to the kind of experiment: Native mass spectrometry. It counts as binding, budding yeast. As to conditions: for direct binding to Ctf4 (in words): 500 mM ammonium acetate, 5-fold or 10-fold molar excess of peptide, 100 μM protein, minimum 30 min. Here is the method: In preparation for non-denaturing nano-electrospray ionization mass spectrometry (native mass spectrometry), Ctf4 471–927 was subjected to two successive rounds of buffer exchange into 500 mM ammonium acetate using illustra NAP-5 columns (GE Healthcare). Following buffer exchange, a 5-fold or 10-fold molar excess of Dna2 peptide 207- […] -223 or Tof2 peptide 497- […] -517 solubilized in 500 mM ammonium acetate was mixed with Ctf4CTD at a final protein concentration of 100 μM and incubated for a minimum of 30 min. Native mass spectra were recorded on a Synapt HDMS instrument (Waters) and calibrated using caesium iodide (100 mg ml^−1) as described previously ([Hernández and Robinson, 2007], [Simon et al., 2014]).

Another assay has as its system Ctf4 471–927 (Ctf4CTD). The assay can be described thus: GST pull-down. The settings on record: GST fusion on Glutathione Sepharose; Ctf4CTD 2 mg/ml, 1 hr 4°C; SDS-PAGE. It counts as binding, budding yeast. Here is the method:
For each Dna2 construct to be tested for interaction with Ctf4CTD, a 25-ml E. coli Rosetta2 (DE3) culture overexpressing the GST-fusion construct was pelleted, resuspended in buffer (50 mM Tris [pH 7.0], 500 mM NaCl, 10% [w/v] glycerol, 1 mM DTT, and protease inhibitors) (Sigma), and lysed by sonication. Following centrifugation, the soluble extract was mixed with 50 μl of Glutathione Sepharose beads (GE Healthcare) pre-equilibrated in the same buffer, and incubated under rotation at 4°C for 1 hr. Unbound protein was removed by three consecutive washes with 1 ml of buffer, followed by three 1-ml washes with pull-down buffer (20 mM HEPES [pH 7.2], 150 mM NaCl, 5% [w/v] glycerol, 0.1% Igepal CA-630, 1 mM TCEP, and 1% BSA). Subsequently, 500 μl of purified Ctf4CTD protein at a concentration of 2 mg/ml was added to the Sepharose beads and binding was allowed to take place for an additional 1 hr at 4°C. The binding reaction was stopped by two consecutive washes with 1 ml of pull-down buffer and a final 1 ml wash with pull-down buffer without BSA. The Sepharose beads were mixed with SDS loading dye and Ctf4CTD interactions with the respective bait proteins were detected via SDS-PAGE.

In the next assay the test system is Ctf4-I901E (471-927). As to the kind of experiment: Fluorescence anisotropy, Sld5 peptide binding to Ctf4-I901E. Further details: species or system budding yeast. The settings on record: Figure S2B; 40 nM fluorescein-labeled Sld5 peptide, pH 7.2, 25°C. Here is the method:
as §1

Another assay deals with Ctf4-4E (471-927). The assay can be described thus: Fluorescence anisotropy, Sld5 peptide binding to Ctf4-4E. As to conditions: Figure S2B; 40 nM fluorescein-labeled Sld5 peptide, pH 7.2, 25°C. Further details: species or system budding yeast. Here is the method: as §1
Assay [2] concerns the target T1, Ctf4 471-927 (Ctf4CTD). The settings on record: isolated CIP-boxes; quoted in Discussion; ref Simon et al., 2014; read-out: affinity constant Kd; cited from earlier work. The source says: The way that CIP-box proteins compete with each other for binding to Ctf4 remains an interesting issue for future investigation.

“Also recorded” adds a separate entry of the source. Where no end group is shown, it is not given here.

Turning to SHAKDVKIQETIRKLNRFKPT [Tof2 peptide], the “Kd (result in words)” value at Ctf4 471-927 (Ctf4CTD) [1] is “too weak to be quantified reliably”; at Ctf4 471-927 (Ctf4CTD) [1] (listed as Tof2) it was “not determinable”. Besides, the “direct binding to Ctf4 (in words)” value is on record as “binds directly to Ctf4” in the assay with Ctf4 471–927 (listed as Tof2 CIP) and “could indeed bind directly to Ctf4 in vitro” in the assay on Ctf4 471–927 (listed as peptide containing the Tof2 CIP-box). In addition, in the assay with Ctf4 471–927 (hierarchy of affinities said to be reflected in native MS occupancy, Figures S3B and S4A, Simon et al., 2014), the “hierarchy of affinities / occupancy of binding sites by CIP-box peptides” value is “Sld5 > Pol1 > Dna2 > Tof2”. For the same substance, the “pull-down of Ctf4 (in words)” value in the assay on Ctf4 471–927 (Ctf4CTD) is “could indeed bind directly to Ctf4 in vitro”.
Turning to “Sld5 peptide (1-19): isolated peptide containing the Sld5 CIP-box, residues 1-19 (MDINIDDILAELDKETTAV; also: fluorescein-labeled, end not given here; UniProt Q03406 1-19, looked up, fragment)”, in the assay on Ctf4-I901E (471-927), the “binding to Ctf4-I901E (in words)” value is reported as “blocked binding; also recorded: neither Ctf4-4E nor Ctf4-I901E could bind”. The “binding to Ctf4-4E (in words)” value with Ctf4-4E (471-927) was “blocked binding; also recorded: neither Ctf4-4E nor Ctf4-I901E could bind”.
On to “CIP-box of Sld5: isolated CIP-box of Sld5, affinity quoted from Simon et al., 2014 (MDINIDDILAELDKETTAVD; fluorescein label (N-terminal probable); the exact peptide limits are in Simon et al. 2014)”, for which the Kd in the assay with Ctf4 471-927 (Ctf4CTD) [2] was 5 µM.

The record behind these values is article PMC4980431, “Ctf4 Is a Hub in the Eukaryotic Replisome that Links Multiple CIP-Box Proteins to the CMG Helicase” (Molecular Cell, 2016).
